# Source: patent publication US20240208978A1, “IDH MUTANT INHIBITOR AND USE THEREOF” (WIGEN BIOMEDICINE TECHNOLOGY (SHANGHAI) CO., LTD., priority 2021, published 2024)
# Experiments:
# mIDH1 R132H = biological target: T1, mIDH1 R132H (Homo sapiens, UniProt O75874, R132H); assay: Detection of 2-HG in supernatant of U87-IDH1 R132H cells; type: cell-based; details: U-87 MG, 72 h, U87MG cells overexpressing mIDH1 R132H, LC-MS-MS; for inhibition at 0.001 µM: 1 nM compound, read-out: Inhibition rate on 2-HG in the supernatant of U87-IDH R132H cells, 1 nM; for inhibition at 0.01 µM: 10 nM compound, read-out: Inhibition rate on 2-HG in the supernatant of U87-IDH R132H cells, 10 nM; for inhibition at 0.1 µM: 100 nM compound, read-out: Inhibition rate on 2-HG in the supernatant of U87-IDH R132H cells, 100 nM
# T1 construct: expressed in transfected cells; host or cells: U87MG
# T1 sequence (O75874 whole entry R132H): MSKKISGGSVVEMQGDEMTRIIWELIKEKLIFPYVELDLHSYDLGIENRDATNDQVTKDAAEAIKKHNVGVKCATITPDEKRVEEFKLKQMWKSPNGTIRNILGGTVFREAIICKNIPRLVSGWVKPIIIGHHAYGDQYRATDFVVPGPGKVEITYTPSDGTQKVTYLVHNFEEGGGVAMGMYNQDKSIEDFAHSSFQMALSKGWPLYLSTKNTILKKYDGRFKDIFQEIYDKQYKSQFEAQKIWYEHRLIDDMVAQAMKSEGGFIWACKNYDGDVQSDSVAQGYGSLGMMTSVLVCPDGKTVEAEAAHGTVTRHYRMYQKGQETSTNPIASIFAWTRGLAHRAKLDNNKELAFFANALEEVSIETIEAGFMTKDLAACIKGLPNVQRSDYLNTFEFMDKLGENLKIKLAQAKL
# Method: (§1) U87MG cells overexpressing the mIDH1 R132H mutation or HT1080 cells carrying IDH1 R132C were seeded in a 48-well plate and a 96-well plate at 50,000 cells/well and 10,000 cells/well, respectively. After the cells were incubated overnight for adhesion, the supernatants were removed. The cell culture media containing serially diluted compounds were added, and the cells were incubated for 72 h. After 72 h, the culture media were collected and diluted 10-fold and 20-fold with water, respectively. Acetonitrile was added to extract the metabolites. The 2-HG content in the culture media was analyzed by LC-MS-MS. The percentage inhibition and IC50 of the compounds on 2-HG in the supernatant were calculated as compared with the control group.
# IDH1 R132C = biological target: T2, IDH1 R132C (Homo sapiens, UniProt O75874, R132C); assay: Detection of 2-HG in supernatant of HT1080 cells carrying IDH1 R132C; type: cell-based; details: 72 h, LC-MS-MS
# T2 construct: endogenous in cells; host or cells: HT1080
# T2 sequence (O75874 whole entry R132C): as the sequence (O75874 whole entry R132H) above, with H132C counted along it
# Method: as §1
SMILES,inhibition at 0.001 µM (mIDH1 R132H) [%],inhibition at 0.01 µM (mIDH1 R132H) [%],inhibition at 0.1 µM (mIDH1 R132H) [%],IC50 (IDH1 R132C) [nM]
C=CC(=O)N1CCN(C2(c3ccc([C@H](C)Nc4ncc5[nH]c(=O)n(CC)c5n4)cc3)CCC(F)(F)CC2)CC1 [Compound 17],30 to 60,60 to 90,> 90,–
C=CC(=O)N1CCN(C(CC23CC(C2)C3)c2ccc([C@H](C)Nc3ncc4[nH]c(=O)n(C5CCC5)c4n3)cc2)CC1 (some centres unmarked) [Compound 35],30 to 60,> 90,> 90,–
C=CC(=O)N1CCC(N(C)C(CC2CC2)c2ccc([C@H](C)Nc3ncc4[nH]c(=O)n(CC)c4n3)cc2)CC1 (some centres unmarked) [Compound 23],30 to 60,60 to 90,> 90,–
C=CC(=O)N1CCN(C(CC2(C)CC2)c2ccc([C@H](C)Nc3ncc4[nH]c(=O)n(CC)c4n3)cc2)CC1 (some centres unmarked) [Compound 13],30 to 60,60 to 90,> 90,–
C=CC(=O)N1CCN(C(CC)c2ccc([C@H](C)Nc3ncc4[nH]c(=O)n(CC)c4n3)cc2)CC1 (some centres unmarked) [Compound 7],30 to 60,60 to 90,> 90,–
C=CC(=O)N1CCN(C(CC2CC2)c2ccc([C@H](C)Nc3ncc4[nH]c(=O)n(C5CCCC5)c4n3)cc2)CC1 (some centres unmarked) [Compound 6],< 30,60 to 90,> 90,–
C=CC(=O)N(C)C1CCN(C(CC2CC2)c2ccc([C@H](C)Nc3ncc4[nH]c(=O)n(CC)c4n3)cc2)CC1 (some centres unmarked) [Compound 28],30 to 60,60 to 90,> 90,–
C=CC(=O)N1CCN(C(CC(C)C)c2ccc([C@H](C)Nc3ncc4[nH]c(=O)n(C5CCCC5)c4n3)cc2)CC1 (some centres unmarked) [Compound 32],30 to 60,> 90,> 90,–
C=CC(=O)N1CC2(CCN(C(CC3CC3)c3ccc([C@H](C)Nc4ncc5[nH]c(=O)n(CC)c5n4)cc3)C2)C1 (some centres unmarked) [Compound 21],30 to 60,60 to 90,> 90,–
C=CC(=O)N1CCN(C(CC2CC2)c2ccc([C@H](C)Nc3ncc4c(n3)n(C(C)C)c(=O)n4C)cc2)CC1 (some centres unmarked) [Compound 38],< 30,60 to 90,60 to 90,–
C=CC(=O)N1CCN(C(CC(C)C)c2ccc([C@H](C)Nc3ncc4[nH]c(=O)n(C(C)C)c4n3)cc2)CC1 (some centres unmarked) [Compound 29],60 to 90,> 90,> 90,–
C=CC(=O)N1CCN(C(CC23CC(C2)C3)c2ccc([C@H](C)Nc3ncc4[nH]c(=O)n(CC)c4n3)cc2)CC1 (some centres unmarked) [Compound 12],30 to 60,> 90,> 90,–
C=CC(=O)N1CCN(C(CC2CC2)c2ccc([C@H](C)Nc3ncc4[nH]c(=O)n(C5CC5)c4n3)cc2)CC1 (some centres unmarked) [Compound 4],30 to 60,> 90,> 90,–
C=CC(=O)N1CCN(C2(c3ccc([C@H](C)Nc4ncc5[nH]c(=O)n(CC)c5n4)cc3)CCCCC2)CC1 [Compound 16],30 to 60,60 to 90,> 90,–
C=CC(=O)N1CCN(C(CC23CC(C2)C3)c2ccc([C@H](C)Nc3ncc4[nH]c(=O)n(C(C)C)c4n3)cc2)CC1 (some centres unmarked) [Compound 33],60 to 90,> 90,> 90,–
C=CC(=O)N1CCN(C(CC2CC2)c2ccc([C@H](C)Nc3ncc4[nH]c(=O)n(C5CCC5)c4n3)cc2)CC1 (some centres unmarked) [Compound 5],30 to 60,> 90,> 90,–
C=CC(=O)N1CCN(C(CC2CC2)c2ccc(C3(Nc4ncc5[nH]c(=O)n(CC)c5n4)CC3)cc2)CC1 (centres unmarked) [Compound 39],< 30,60 to 90,> 90,–
C=CC(=O)N1CCN(C(CC2CC2)c2ccc([C@H](C)Nc3ncc4c(n3)n(CC)c(=O)n4C)cc2)CC1 (some centres unmarked) [Compound 37],< 30,60 to 90,60 to 90,–
C=CC(=O)N(C)C1CN(C(CC2CC2)c2ccc([C@H](C)Nc3ncc4[nH]c(=O)n(CC)c4n3)cc2)C1 (some centres unmarked) [Compound 27],< 30,60 to 90,> 90,–
C=CC(=O)N1CCC2(CC1)CN(C(CC1CC1)c1ccc([C@H](C)Nc3ncc4[nH]c(=O)n(CC)c4n3)cc1)C2 (some centres unmarked) [Compound 20],30 to 60,60 to 90,> 90,–

SMILES,inhibition at 0.001 µM (mIDH1 R132H) [%],inhibition at 0.01 µM (mIDH1 R132H) [%],inhibition at 0.1 µM (mIDH1 R132H) [%],IC50 (IDH1 R132C) [nM]
C=CC(=O)N1CCC2(C1)CN(C(CC1CC1)c1ccc([C@H](C)Nc3ncc4[nH]c(=O)n(CC)c4n3)cc1)C2 (some centres unmarked) [Compound 19],30 to 60,60 to 90,> 90,–
C=CC(=O)N1CCN(C(CC(C)C)c2ccc([C@H](C)Nc3ncc4[nH]c(=O)n(CC)c4n3)cc2)CC1 (some centres unmarked) [Compound 8],30 to 60,> 90,> 90,–
C=CC(=O)N1CC2(CCN(C(CC3CC3)c3ccc([C@H](C)Nc4ncc5[nH]c(=O)n(CC)c5n4)cc3)CC2)C1 (some centres unmarked) [Compound 22],60 to 90,60 to 90,> 90,–
C=CC(=O)N1CCN(C(CC2CC2)c2ccc([C@H](C)Nc3ncc4[nH]c(=O)n(C)c4n3)cc2)CC1 (some centres unmarked) [Compound 2],30 to 60,60 to 90,> 90,–
C=CC(=O)N1CCN(C2(c3ccc([C@H](C)Nc4ncc5[nH]c(=O)n(CC)c5n4)cc3)CCCC2)CC1 [Compound 15],30 to 60,> 90,> 90,–
C=CC(=O)N1CC(N(C)C(CC2CC2)c2ccc([C@H](C)Nc3ncc4[nH]c(=O)n(CC)c4n3)cc2)C1 (some centres unmarked) [Compound 24],30 to 60,60 to 90,> 90,–
C=CC(=O)N1CC2(C1)CN(C(CC1CC1)c1ccc([C@H](C)Nc3ncc4[nH]c(=O)n(CC)c4n3)cc1)C2 (some centres unmarked) [Compound 18],30 to 60,> 90,> 90,–
C=CC(=O)N1CCN(C(CC(C)C)c2ccc([C@H](C)Nc3ncc4[nH]c(=O)n(C5CC5)c4n3)cc2)CC1 (some centres unmarked) [Compound 30],30 to 60,> 90,> 90,–
C=CC(=O)N1CCN([C@@H](CC2CC2)c2ccc([C@H](C)Nc3ncc4[nH]c(=O)n(C5CCC5)c4n3)cc2)CC1 [Compound 5-1],–,–,–,2.63
"N#Cc1ccnc(N2C(=O)CC[C@H]2C(=O)N(c2cncc(F)c2)[C@H](C(=O)NC2CC(F)(F)C2)c2ccccc2Cl)c1 [Ivosidenib, ivosidenib, reference compound]",< 30,< 30,60 to 90,–
C=CC(=O)N1CCN(C(CC2CCC2)c2ccc([C@H](C)Nc3ncc4[nH]c(=O)n(CC)c4n3)cc2)CC1 (some centres unmarked) [Compound 10],30 to 60,60 to 90,> 90,–
C=CC(=O)N1CCN(C(CC2CC2)c2ccc(C3(Nc4ncc5[nH]c(=O)n(C(C)C)c5n4)CC3)cc2)CC1 (centres unmarked) [Compound 40],< 30,60 to 90,> 90,–
C=CC(=O)N1CCN(C(CC(C)C)c2ccc([C@H](C)Nc3ncc4[nH]c(=O)n(C5CCC5)c4n3)cc2)CC1 (some centres unmarked) [Compound 31],30 to 60,> 90,> 90,–
C=CC(=O)N1CCN(C(CC23CC(C2)C3)c2ccc([C@H](C)Nc3ncc4[nH]c(=O)n(C5CCCC5)c4n3)cc2)CC1 (some centres unmarked) [Compound 36],30 to 60,> 90,> 90,–
C=CC(=O)NC1CCN(C(CC2CC2)c2ccc([C@H](C)Nc3ncc4[nH]c(=O)n(CC)c4n3)cc2)CC1 (some centres unmarked) [Compound 26],60 to 90,60 to 90,> 90,–
C=CC(=O)NC1CN(C(CC2CC2)c2ccc([C@H](C)Nc3ncc4[nH]c(=O)n(CC)c4n3)cc2)C1 (some centres unmarked) [Compound 25],60 to 90,60 to 90,> 90,–
C=CC(=O)N1CCN([C@H](CC2CC2)c2ccc([C@H](C)Nc3ncc4[nH]c(=O)n(C(C)C)c4n3)cc2)CC1 [Compound 3-2],–,–,–,2.36
C=CC(=O)N1CCN(C(CC(C)(C)C)c2ccc([C@H](C)Nc3ncc4[nH]c(=O)n(CC)c4n3)cc2)CC1 (some centres unmarked) [Compound 11],30 to 60,60 to 90,> 90,–
C=CC(=O)N1CCN(C(CC)(CC)c2ccc([C@H](C)Nc3ncc4[nH]c(=O)n(CC)c4n3)cc2)CC1 [Compound 14],30 to 60,> 90,> 90,–
C=CC(=O)N1CCN(C(CC23CC(C2)C3)c2ccc([C@H](C)Nc3ncc4[nH]c(=O)n(C5CC5)c4n3)cc2)CC1 (some centres unmarked) [Compound 34],60 to 90,> 90,> 90,–
